Assay results as given in paper PMC6792352, “Limited Chemical Structural Diversity Found to Modulate Thyroid Hormone Receptor in the Tox21 Chemical Library” (Environmental Health Perspectives, 2019).
Where a name gives a salt, the structure may show the parent alone.

Experiment: in vitro
Settings: rat, gh3-tre-luc cells

SMILES	CC50 at 24 h (AC50 (uM) modified / 1000) [µM]	also measured
CN(CC(=O)N1CCOCC1)Cc1c(Cl)cccc1NC(=O)c1ccccc1 [Fominoben hydrochloride]	> 50	–
Clc1cc(Cl)nc(Cl)n1 [2,4,6-Trichloropyrimidine]	> 90	–
c1ccc2c(c1)CCNC2 [1,2,3,4-Tetrahydroisoquinoline]	> 90	–
C[C@H](O)CN(C)C [(S)-(+)-1-Dimethylamino-2-propanol]	> 50	–
O=C(C(Cl)Cl)N1CCOC12CCCCC2 [MON-4660]	62.3	–
C/C=C/C=C/COC(=O)C(C)C [2,4-Hexadienyl isobutyrate]	75.5	–
CCCCCCCCCCCSCC(=O)O [3-Thiatetradecanoic acid]	50.2	–
Cc1ccc(Nc2nccc(N(C)c3ccc4c(C)n(C)nc4c3)n2)cc1S(N)(=O)=O [Pazopanib]	> 50	–
C=C[Si](OCC)(OCC)OCC [Ethenyl(triethoxy)silane]	> 90	–
Cc1nnc2n1-c1sc(CCC(=O)N3CCOCC3)cc1C(c1ccccc1Cl)=NC2 [Apafant]	> 50	–
CC(CCc1ccc2c(c1)OCO2)NN (stereo not drawn) [Safrazine hydrochloride]	> 50	–
CCCC(C)(COC(N)=O)COC(N)=O [Meprobamate]	–	CC50 at 24 h (AC50 (uM) modified / 1000, Tox21_110001=Tox21_111063, viability, 1 nM T3 present, 24 h): > 50 µM; CC50 at 24 h (AC50 (uM) modified / 1000, Tox21_110001=Tox21_200332, viability, 1 nM T3 present, 24 h): > 90 µM
CC1(C)CC(N)CC(C)(C)N1 [2,2,6,6-Tetramethylpiperidin-4-amine]	> 90	–
CC(C)CP(=S)(S)CC(C)C [Sodium bis(2-methylpropyl)phosphinodithioate]	–	CC50 at 24 h (AC50 (uM) modified / 1000, Tox21_110001=Tox21_301761, viability, 1 nM T3 present, 24 h): > 90 µM
OCCSSCCO [2-Hydroxyethyl disulfide]	–	CC50 at 24 h (AC50 (uM) modified / 1000, Tox21_110001=Tox21_302181, viability, 1 nM T3 present, 24 h): > 90 µM
CCOc1nc2cccc(C(=O)OC(C)OC(=O)OC3CCCCC3)c2n1Cc1ccc(-c2ccccc2-c2nnn[nH]2)cc1 (stereo not drawn) [Candesartan cilexetil]	31.1	–
O=C(Cl)c1ccccc1F [2-Fluorobenzoyl chloride]	> 90	–
O=[N+]([O-])c1cccc2c([N+](=O)[O-])cccc12 [1,5-Dinitronaphthalene]	–	CC50 at 24 h (AC50 (uM) modified / 1000, Tox21_110001=Tox21_200953, viability, 1 nM T3 present, 24 h): > 90 µM
Nc1cccc(S(=O)(=O)c2cccc(N)c2)c1 [3,3'-Sulphonyldianiline]	> 90	–
COc1ccc2cc1Oc1cc3c(cc1OC)CC[N+](C)(C)[C@H]3Cc1ccc(cc1)Oc1c(OC)c(OC)cc3c1[C@@H](C2)[N+](C)(C)CC3 [Metocurine iodide]	> 50	–
O=S(=O)(O)c1ccc(N=Nc2c(O)ccc3ccccc23)cc1 [C.I. Acid Orange 7]	44.3	–
CC(C)(S)C(=O)N[C@@H](CS)C(=O)O [Bucillamine]	> 50	–
O=C(CBr)c1ccccc1 [2-Bromoacetophenone]	–	CC50 at 24 h (AC50 (uM) modified / 1000, Tox21_110001=Tox21_202941, viability, 1 nM T3 present, 24 h): > 90 µM
CN1C(=O)CC(=O)N(c2ccccc2)c2cc(Cl)ccc21 [Clobazam]	–	CC50 at 24 h (AC50 (uM) modified / 1000, Tox21_110001=Tox21_112608, viability, 1 nM T3 present, 24 h): > 50 µM
Clc1cc(Cl)c(-c2cc(Cl)c(Cl)cc2Cl)cc1Cl [2,2',4,4',5,5'-Hexachlorobiphenyl]	–	CC50 at 24 h (AC50 (uM) modified / 1000, Tox21_110001=Tox21_202470, viability, 1 nM T3 present, 24 h): > 40 µM
CN(C)CCCN1c2ccccc2Sc2ccc(C(F)(F)F)cc21 [Triflupromazine hydrochloride]	9.02	–
O=[N+]([O-])c1ccc(F)c(Cl)c1 [2-Chloro-1-fluoro-4-nitrobenzene]	> 90	–

SMILES	CC50 at 24 h (AC50 (uM) modified / 1000) [µM]	also measured
CC(C)(N)C#N [2-Amino-2-methylpropionitrile]	> 90	–
CCN(CC)c1cccc(O)c1 [3-Diethylaminophenol]	> 90	–
CCCC(C)C(=O)OCC (stereo not drawn) [Ethyl 2-methylpentanoate]	> 90	–
c1ccncc1 [Pyridine hydrochloride]	> 90	–
OCCOc1ccccc1 [2-Phenoxyethanol]	> 90	–
CC(=O)OCC(=O)[C@H]1CC[C@H]2[C@@H]3CCC4=CC(=O)CC[C@]4(C)[C@H]3CC[C@]12C [Deoxycorticosterone acetate]	> 50	–
CCCCN=C=O [Butyl isocyanate]	> 90	–
c1ccc(P(c2ccccc2)c2ccccc2)cc1 [Triphenylphosphine]	> 90	–
Nc1c(Cl)c(Cl)nc(C(=O)O)c1Cl [Picloram]	> 100	–
CCCCCCCCCCCCCCCCOP(=O)([O-])OCC[N+](C)(C)C [Miltefosine]	> 50	–
c1ccc2c(c1)cc1ccc3cccc4ccc2c1c34 [Benzo(a)pyrene]	> 90	–
Cc1cscn1 [4-Methylthiazole]	> 90	–
CC(C)C(=O)OCCc1ccccc1 [2-Phenylethyl 2-methylpropanoate]	> 90	–
CC(C)CC(C)Nc1ccc(Nc2ccccc2)cc1 (stereo not drawn) [N-(1,3-Dimethylbutyl)-N'-phenyl-p-phenylenediamine]	39	–
C=CCOCC(CC)(CO)COCC=C [2,2-Bis[(prop-2-en-1-yloxy)methyl]butan-1-ol]	> 90	–
CC(C)=CC1C(C(=O)OCc2cccc(Oc3ccccc3)c2)C1(C)C (stereo not drawn) [Phenothrin]	> 90	–
CCCC(=O)OC(C(Cl)(Cl)Cl)P(=O)(OC)OC (stereo not drawn) [Butonate]	–	CC50 at 24 h (AC50 (uM) modified / 1000, Tox21_110001=Tox21_111908, viability, 1 nM T3 present, 24 h): > 50 µM
O=C1NCN(c2ccccc2)C12CCN(CC1COc3ccccc3O1)CC2 (stereo not drawn) [Spiroxatrine]	36.3	–
CS(=O)(=O)OC[C@H](O)[C@@H](O)COS(C)(=O)=O [Treosulfan]	> 50	–
O=[N+]([O-])c1cc([N+](=O)[O-])c2ccccc2c1 [1,3-Dinitronaphthalene]	–	CC50 at 24 h (AC50 (uM) modified / 1000, Tox21_110001=Tox21_400056, viability, 1 nM T3 present, 24 h): > 90 µM
O=C1C=CC(=O)C=C1 [1,4-Benzoquinone]	> 90	–
COc1ccc(C(=O)/N=c2\[nH]c3ccccc3c(NCc3ccccc3)c2C#N)cc1 [SSR161421]	> 90	–
Cc1ccc(C(C)C)c(O)c1 [Thymol]	> 90	–
c1ccc(OCC2CO2)cc1 (stereo not drawn) [Phenyl glycidyl ether]	> 90	–
N#CC1(N=NC2(C#N)CCCCC2)CCCCC1 [1,1'-Diazene-1,2-diyldicyclohexanecarbonitrile]	> 90	–
Cc1ccc2c(C)cccc2c1 [1,6-Dimethylnaphthalene]	> 90	–
CC(C)C=O [2-Methylpropanal]	> 90	–

SMILES	CC50 at 24 h (AC50 (uM) modified / 1000) [µM]	also measured
N[C@@H](CCC(=O)N[C@@H](CS)C(=O)NCC(=O)O)C(=O)O [Glutathione]	> 50	–
COc1cc(C=O)ccc1O [4-Hydroxy-3-methoxybenzaldehyde]	> 50	–
CCCCCCCCCCC=O [Undecanal]	> 90	–
Oc1ccc2c3c1O[C@H]1[C@@H](O)CC[C@@]4(O)[C@@H](C2)N(CC2CCC2)CC[C@]314 [Nalbuphine]	> 50	–
CC1CCCCN1CCCOC(=O)c1ccccc1 (stereo not drawn) [Piperocaine hydrochloride]	> 50	–
O=C(NC(=O)c1c(F)cccc1F)Nc1cc(Cl)c(Oc2ncc(C(F)(F)F)cc2Cl)c(Cl)c1 [Chlorfluazuron]	71.4	–
S=C(SSC(=S)N1CCCCC1)N1CCCCC1 [Dicyclopentamethylenethiuram disulfide]	–	CC50 at 24 h (AC50 (uM) modified / 1000, Tox21_110001=Tox21_113156, viability, 1 nM T3 present, 24 h): 0.373 µM
CC(C)CCCC(C)CCO (stereo not drawn) [3,7-Dimethyloctan-1-ol]	> 90	–
C=CC(C)CCCC(C)(C)O (stereo not drawn) [1,1,5-Trimethyl-6-heptenol]	> 90	–
O=C1Nc2ccc([N+](=O)[O-])cc2C1=O [5-Nitroisatin]	> 90	–
CCc1ccccc1N [2-Ethylaniline]	> 90	–
O=C(CCCN1CCC(n2c(O)nc3ccccc32)CC1)c1ccc(F)cc1 [Benperidol]	> 20	–
CC(CC=O)c1ccccc1 (stereo not drawn) [3-Phenylbutyraldehyde]	> 90	–
C=C(C)[C@@H]1CC=C(C=O)CC1 [l-Perillaldehyde]	> 90	–
O=C1OC(=O)C2CC=CCC12 (stereo not drawn) [Tetrahydrophthalic anhydride]	> 90	–
O=c1[nH]cnc2[nH]cc(CN3CCCCC3)c12 [5-(Piperidin-1-ylmethyl)-3,7-dihydro-4H-pyrrolo[2,3-d]pyrimidin-4-one]	> 50	–
COC(=O)C1=C(C)NC(C)=C(C(=O)OC(C)(C)CN(C)CCC(c2ccccc2)c2ccccc2)C1c1cccc([N+](=O)[O-])c1 (stereo not drawn) [lercanidipine hydrochloride]	8.65	–
COc1c(N2C[C@@H]3CCCN[C@@H]3C2)c(F)cc2c(=O)c(C(=O)O)cn(C3CC3)c12 [Moxifloxacin hydrochloride]	> 50	–
CC(C)OC(=O)Nc1ccccc1 [Propham]	–	CC50 at 24 h (AC50 (uM) modified / 1000, Tox21_110001=Tox21_201664, viability, 1 nM T3 present, 24 h): > 90 µM
COC(=O)CCSCCC(=O)OC [Dimethyl 3,3'-thiodipropionate]	> 90	–
CN1CCc2cc3c(cc2C1O)OCO3 (stereo not drawn) [Hydrastinine hydrochloride]	> 90	–
CCCCCCCCCCCCOCC1CO1 (stereo not drawn) [Dodecyl glycidyl ether]	> 90	–
CC(C)CCCC(C)N (stereo not drawn) [2-Amino-6-methylheptane]	> 50	–
OC12N=C(c3ccccc3)SC1Cc1cc(Cl)ccc12 (stereo not drawn) [HMR1426]	56.9	–
COc1cc(C)ccc1C(C)C [2-Methoxy-4-methyl-1-(propan-2-yl)benzene]	> 90	–
CC1(C)O[C@@H]2[C@@H](CO[C@@]3(COS(N)(=O)=O)OC(C)(C)O[C@@H]23)O1 [Topiramate]	> 90	–
